Reference: patent publication US6673783B2, “Fusidic acid derivatives” (Leo Pharmaceutical Products Ltd. A/S, priority 2001, dated 2004)
Converted amounts (≈) assume the structure as drawn.

Tests used:
S. aureus ATC6538P = experiment: MIC, agar diffusion method, S. aureus ATC6538P; assay type: cell-based; settings: for MIC: Staphylococcus aureus, read-out: MIC value (concentration in μg/ml required for 90% inhibition)
From the text: (§1) In vitro investigations have evidenced high potency of compounds of the invention against several bacteria including Staphylococci, Streptococci, Corynebacteriae, Mycobacteriae and Neisseriae. […] The potency of new fusidic acid analogues are estimated by comparing the inhibition of growth of different microorganisms produced by known concentrations of the analogue to be examined and a reference like fusidic acid. The microbiological assay set up is in agreement with the European Pharmacopoeia 3rd edition (1997). It is an agar diffusion method where the same volume of the tested solution is added to cavities in agar. The inhibition zones are function of the concentration of the fusidic acid analogue used. All assays are run with fusidic acid as reference substance. [drawing 7]

S. aureus ATCC 29213 = experiment: MIC, agar diffusion method, S. aureus ATCC 29213; assay type: cell-based; settings: for MIC: Staphylococcus aureus, ATCC29213, read-out: MIC value (concentration in μg/ml required for 90% inhibition)
From the text: as §1

S. aureus CJ232 = experiment: MIC, agar diffusion method, S. aureus CJ232 (MRSA); assay type: cell-based; settings: for MIC: Staphylococcus aureus, read-out: MIC value (concentration in μg/ml required for 90% inhibition)
From the text: as §1

S. aureus CJ234 (R) = experiment: MIC, agar diffusion method, S. aureus CJ234 (R) (MRSA and Rifampicin resistant); assay type: cell-based; settings: for MIC: Staphylococcus aureus, read-out: MIC value (concentration in μg/ml required for 90% inhibition)
From the text: as §1

S. epidermidis ATCC12228 = experiment: MIC, agar diffusion method, S. epidermidis ATCC12228; assay type: cell-based; settings: for MIC: Staphylococcus epidermidis, read-out: MIC value (concentration in μg/ml required for 90% inhibition)
From the text: as §1

[1] = tested on: Str. pyrogenes Leo id: EC5; experiment: MIC, agar diffusion method, Str. pyrogenes Leo id: EC5; assay type: cell-based; settings: for MIC: read-out: MIC value (concentration in μg/ml required for 90% inhibition)
From the text: as §1

Str. pyrogenes NCTC8304 = experiment: MIC, agar diffusion method, Str. pyrogenes NCTC8304; assay type: cell-based; settings: for MIC: read-out: MIC value (concentration in μg/ml required for 90% inhibition)
From the text: as §1

Str.mitis Leo id: EG5 = experiment: MIC, agar diffusion method, Str.mitis Leo id: EG5; assay type: cell-based; settings: for MIC: Streptococcus mitis, read-out: MIC value (concentration in μg/ml required for 90% inhibition)
From the text: as §1

Str. sp. ATCC12449 = experiment: MIC, agar diffusion method, Str. sp. ATCC12449; assay type: cell-based; settings: for MIC: read-out: MIC value (concentration in μg/ml required for 90% inhibition)
From the text: as §1

Str. sp. Leo id: EF6 = experiment: MIC, agar diffusion method, Str. sp. Leo id: EF6; assay type: cell-based; settings: for MIC: read-out: MIC value (concentration in μg/ml required for 90% inhibition)
From the text: as §1

[2] = tested on: Str. salvarius LEO-ID EG7; experiment: MIC, agar diffusion method, Str. salvarius LEO-ID EG7; assay type: cell-based; settings: for MIC: read-out: MIC value (concentration in μg/ml required for 90% inhibition)
From the text: as §1

[3] = tested on: Str. faecium Leo-id: E119(P); experiment: MIC, agar diffusion method, Str. faecium Leo-id: E119(P) (penicillin resistant); assay type: cell-based; settings: for MIC: Enterococcus faecium, read-out: MIC value (concentration in μg/ml required for 90% inhibition)
From the text: as §1

[4] = tested on: several bacteria including Staphylococci, Streptococci, Corynebacteriae, Mycobacteriae and Neisseriae; experiment: In vitro antibacterial activity, agar diffusion with fusidic acid as reference; assay type: cell-based; settings: biological tests, see Table 1
From the text: as §1

bacteria = settings: reduction of C-24/C-25 and C-17/C-20 double bonds of fusidic acid; von Daehne et al. 1979; cited from earlier work

Compound: CC(=O)O[C@H]1C[C@@]2(C)C(CC(O)[C@@H]3C2(C)CCC2C(C)C(O)CC[C@@]23C)C12CC2(CCC=C(C)C)C(=O)O (stereo partly drawn) [Compound 101, 17S,20S-Methanofusidic acid]
- MIC (S. aureus ATC6538P): 0.125 µg/mL (≈ 0.236 µM)
- MIC (S. aureus ATCC 29213): 0.125 µg/mL (≈ 0.236 µM)
- MIC (S. aureus CJ232): 0.125 µg/mL (≈ 0.236 µM)
- MIC (S. aureus CJ234 (R)): 0.004 µg/mL (≈ 0.00754 µM)
- MIC (S. epidermidis ATCC12228): 0.125 µg/mL (≈ 0.236 µM)
- MIC [1]: 16 µg/mL (≈ 30.1 µM)
- MIC (Str. pyrogenes NCTC8304): 4 µg/mL (≈ 7.54 µM)
- MIC (Str.mitis Leo id: EG5): 4 µg/mL (≈ 7.54 µM)
- MIC (Str. sp. ATCC12449): 16 µg/mL (≈ 30.1 µM)
- MIC (Str. sp. Leo id: EF6): 4 µg/mL (≈ 7.54 µM)
- MIC [2]: 4 µg/mL (≈ 7.54 µM)
- MIC [3]: 0.125 µg/mL (≈ 0.236 µM)
- antibacterial activity compared to that of fusidic acid (1) [4]: comparable antibacterial activity
- melting point: 243 to 245 °C

Compound: CC(=O)OC1CC2(C)C(CC(O)C3C4(C)CCC(O)C(C)C4CCC32C)C12CC2(CCCC(C)C)C(=O)O (stereo not drawn) [Compound 102, 24,25-Dihydro-17S,20S-methanofusidic acid]
- MIC value (concentration in μg/ml required for 90% inhibition) (S. aureus ATC6538P): 0.125 µg/mL
- MIC value (concentration in μg/ml required for 90% inhibition) (S. aureus ATCC 29213): 0.25 µg/mL
- MIC value (concentration in μg/ml required for 90% inhibition) (S. aureus CJ232): 0.25 µg/mL
- MIC value (concentration in μg/ml required for 90% inhibition) (S. aureus CJ234 (R)): 0.25 µg/mL
- MIC value (concentration in μg/ml required for 90% inhibition) (S. epidermidis ATCC12228): 0.125 µg/mL
- MIC value (concentration in μg/ml required for 90% inhibition) [1]: 64 µg/mL
- MIC value (concentration in μg/ml required for 90% inhibition) (Str. pyrogenes NCTC8304): 16 µg/mL
- MIC value (concentration in μg/ml required for 90% inhibition) (Str.mitis Leo id: EG5): 64 µg/mL
- MIC value (concentration in μg/ml required for 90% inhibition) (Str. sp. ATCC12449): 64 µg/mL
- MIC value (concentration in μg/ml required for 90% inhibition) (Str. sp. Leo id: EF6): 64 µg/mL
- MIC value (concentration in μg/ml required for 90% inhibition) [2]: 16 µg/mL
- MIC value (concentration in μg/ml required for 90% inhibition) [3]: 1 µg/mL

Compound: CC(=O)OC1CC2(C)C(CC(O)C3C4(C)CCC(=O)C(C)C4CCC32C)C12CC2(CCC=C(C)C)C(=O)O (stereo not drawn) [Compound 104, 3-Dehydro-17S,20S-methanofusidic acid]
- MIC value (concentration in μg/ml required for 90% inhibition) (S. aureus ATC6538P): 0.125 µg/mL
- MIC value (concentration in μg/ml required for 90% inhibition) (S. aureus ATCC 29213): 0.125 µg/mL
- MIC value (concentration in μg/ml required for 90% inhibition) (S. aureus CJ232): 1.0 µg/mL
- MIC value (concentration in μg/ml required for 90% inhibition) (S. epidermidis ATCC12228): 0.125 µg/mL
- MIC value (concentration in μg/ml required for 90% inhibition) [1]: 64 µg/mL
- MIC value (concentration in μg/ml required for 90% inhibition) (Str. pyrogenes NCTC8304): 16 µg/mL
- MIC value (concentration in μg/ml required for 90% inhibition) (Str.mitis Leo id: EG5): 64 µg/mL
- MIC value (concentration in μg/ml required for 90% inhibition) (Str. sp. ATCC12449): 64 µg/mL
- MIC value (concentration in μg/ml required for 90% inhibition) (Str. sp. Leo id: EF6): 64 µg/mL
- MIC value (concentration in μg/ml required for 90% inhibition) [2]: 64 µg/mL
- MIC value (concentration in μg/ml required for 90% inhibition) [3]: 0.25 µg/mL

Compound: CC(C)=CCCC1(C(=O)O)CC12C(OC(=O)C(C)C)CC1(C)C2CC(O)C2C3(C)CCC(O)C(C)C3CCC21C (stereo not drawn) [Compound 107, 16-Deacetoxy-16β-(isopropionyloxy)-17S,20S-methanofusidic acid]
- MIC value (concentration in μg/ml required for 90% inhibition) (S. aureus ATC6538P): 0.25 µg/mL
- MIC value (concentration in μg/ml required for 90% inhibition) (S. aureus ATCC 29213): 1.0 µg/mL
- MIC value (concentration in μg/ml required for 90% inhibition) (S. aureus CJ232): 1.0 µg/mL
- MIC value (concentration in μg/ml required for 90% inhibition) (S. epidermidis ATCC12228): 0.25 µg/mL
- MIC value (concentration in μg/ml required for 90% inhibition) [1]: 64 µg/mL
- MIC value (concentration in μg/ml required for 90% inhibition) (Str. pyrogenes NCTC8304): 64 µg/mL
- MIC value (concentration in μg/ml required for 90% inhibition) (Str.mitis Leo id: EG5): 16 µg/mL
- MIC value (concentration in μg/ml required for 90% inhibition) (Str. sp. ATCC12449): 64 µg/mL
- MIC value (concentration in μg/ml required for 90% inhibition) (Str. sp. Leo id: EF6): 16 µg/mL
- MIC value (concentration in μg/ml required for 90% inhibition) [2]: 64 µg/mL
- MIC value (concentration in μg/ml required for 90% inhibition) [3]: 4 µg/mL

Compound: CCOC1CC2(C)C(CC(O)C3C4(C)CCC(O)C(C)C4CCC32C)C12CC2(CCC=C(C)C)C(=O)O (stereo not drawn) [Compound 110, 16-Deacetoxy-16β-ethoxy-17S,20S-methanofusidic acid]
- MIC value (concentration in μg/ml required for 90% inhibition) (S. aureus ATC6538P): 0.125 µg/mL
- MIC value (concentration in μg/ml required for 90% inhibition) (S. aureus ATCC 29213): 0.125 µg/mL
- MIC value (concentration in μg/ml required for 90% inhibition) (S. aureus CJ232): 1.0 µg/mL
- MIC value (concentration in μg/ml required for 90% inhibition) (S. aureus CJ234 (R)): 0.004 µg/mL
- MIC value (concentration in μg/ml required for 90% inhibition) (S. epidermidis ATCC12228): 0.125 µg/mL
- MIC value (concentration in μg/ml required for 90% inhibition) [1]: 64 µg/mL
- MIC value (concentration in μg/ml required for 90% inhibition) (Str. pyrogenes NCTC8304): 4 µg/mL
- MIC value (concentration in μg/ml required for 90% inhibition) (Str.mitis Leo id: EG5): 64 µg/mL
- MIC value (concentration in μg/ml required for 90% inhibition) (Str. sp. ATCC12449): 64 µg/mL
- MIC value (concentration in μg/ml required for 90% inhibition) (Str. sp. Leo id: EF6): 64 µg/mL
- MIC value (concentration in μg/ml required for 90% inhibition) [2]: 64 µg/mL
- MIC value (concentration in μg/ml required for 90% inhibition) [3]: 0.25 µg/mL

Compound: CC(=O)O[C@H]1C[C@@]2(C)C(CC(O)[C@@H]3C2(C)CCC2C(C)C(O)CC[C@@]23C)/C1=C(\CCC=C(C)C)C(=O)O (stereo partly shown) [Fusidic acid (1), fusidic acid]
- MIC (S. aureus ATC6538P): 0.125 µg/mL (≈ 0.242 µM)
- MIC (S. aureus ATCC 29213): 0.125 µg/mL (≈ 0.242 µM)
- MIC (S. aureus CJ232): 0.125 µg/mL (≈ 0.242 µM)
- MIC (S. aureus CJ234 (R)): 0.004 µg/mL (≈ 0.00774 µM)
- MIC (S. epidermidis ATCC12228): 0.125 µg/mL (≈ 0.242 µM)
- MIC [1]: 4 µg/mL (≈ 7.74 µM)
- MIC (Str. pyrogenes NCTC8304): 4 µg/mL (≈ 7.74 µM)
- MIC (Str.mitis Leo id: EG5): 4 µg/mL (≈ 7.74 µM)
- MIC (Str. sp. ATCC12449): 4 µg/mL (≈ 7.74 µM)
- MIC (Str. sp. Leo id: EF6): 4 µg/mL (≈ 7.74 µM)
- MIC [2]: 4 µg/mL (≈ 7.74 µM)
- MIC [3]: 0.125 µg/mL (≈ 0.242 µM)

Compound: tetrahydrofusidic acid
- antibacterial activity (bacteria): almost complete loss of activity
